We go through six molecules from patent US10000484B2, “Inhibitors of the renal outer medullary potassim channel” (MERCK SHARP & DOHME CORP., priority 2013, dated 2018).

The structures appear in SMILES notation.

As usually defined, the IC50 is the concentration that inhibits the measured activity by half. Low readings indicate higher potency, high ones lower potency.

This test deals with T1, ROMK (Kir1.1) (Homo sapiens, UniProt P48048).
T1 sequence (P48048 1-391): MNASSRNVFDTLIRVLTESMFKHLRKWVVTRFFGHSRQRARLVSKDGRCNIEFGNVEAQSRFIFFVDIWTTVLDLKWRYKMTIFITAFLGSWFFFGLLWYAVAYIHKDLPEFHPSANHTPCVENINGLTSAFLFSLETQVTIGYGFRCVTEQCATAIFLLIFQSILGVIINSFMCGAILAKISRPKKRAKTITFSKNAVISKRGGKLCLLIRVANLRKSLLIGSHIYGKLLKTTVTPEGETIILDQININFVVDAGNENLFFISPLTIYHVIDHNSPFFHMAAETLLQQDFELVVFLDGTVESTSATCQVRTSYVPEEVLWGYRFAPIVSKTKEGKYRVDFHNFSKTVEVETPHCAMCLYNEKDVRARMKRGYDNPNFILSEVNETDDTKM
Put plainly: 86Rb+ Efflux Assay, described in WO2013/062892 at pages 79-80. Type of test: cell-based. To be noted: values marked "(Rb)" in Table 10. The text has this: The data for Examples 2, 3, 4, 8, 9, 10, 15 and 32 were obtained using the ^86Rb^+ Efflux Assay, described in WO2013/062892 at pages 79-80.
Take `Cc1c(CCN2CCc3c(cnn3-c3ccc(-n4cnnn4)cc3)C2)ccc2c1COC2=O` [Example 8, 4-methyl-5-(2-{1-[4-(1H-tetrazol-1-yl)phenyl]-1,4,6,7-tetrahydro-5H-pyrazolo[4,3-c]pyridin-5-yl}ethyl)-2-benzofuran-1(3H)-one]: half-maximal inhibition (IC50) required 380 nM.

`Cc1c(CCN2CCc3c(cnn3-c3ccc4c(c3)COC4=O)C2)ccc2c1COC2=O` [Example 10, 4-methyl-5-{2-[1-(1-oxo-1,3-dihydro-2-benzofuran-5-yl)-1,4,6,7-tetrahydro-5H-pyrazolo[4,3-c]pyridin-5-yl]ethyl}-2-benzofuran-1(3H)-one] displayed an IC50 of 66 nM. On to `N#Cc1ccc(-n2ncc3c2CCN(CCc2ccc4c(c2)COC4=O)C3)cc1` [Example 3, 4-{5-[2-(1-oxo-1,3-dihydro-2-benzofuran-5-yl)ethyl]-4,5,6,7-tetrahydro-1H-pyrazolo[4,3-c]pyridin-1-yl}benzonitrile], for which the midpoint of inhibition, the IC50, lay at 501 nM. In the case of `Cc1c(C(O)CN2CCc3nc(-c4ccc5c(c4)COC5=O)ncc3C2)ccc2c1COC2=O` (stereo not drawn) [Example 32, 5-{1-hydroxy-2-[2-(1-oxo-1,3-dihydro-2-benzofuran-5-yl)-7,8-dihydropyrido[4,3-d]pyrimidin-6(5H)-yl]ethyl}-4-methyl-2-benzofuran-1(3H)-one] it was 69.9 nM.

With `Cc1c(CCN2CCc3nc(-c4ccc(C#N)cc4)ncc3C2)ccc2c1COC2=O` [Example 4, 4-{6-[2-(4-methyl-1-oxo-1,3-dihydro-2-benzofuran-5-yl)ethyl]-5,6,7,8-tetrahydropyrido[4,3-d]pyrimidin-2-yl}benzonitrile], half-maximal inhibition (IC50) required 304 nM. In the case of `COc1cc(-c2cn3c(n2)CN(CCc2ccc4c(c2C)COC4=O)CC3)ccc1C#N` [Example 15, 2-methoxy-4-{7-[2-(4-methyl-1-oxo-1,3-dihydro-2-benzofuran-5-yl)ethyl]-5,6,7,8-tetrahydroimidazo[1,2-a]pyrazin-2-yl}benzonitrile] it was 197 nM.
